In brackets after ≈: the same amount, converted by molar mass.
How the values were obtained:
Assay in all cases: ≥ marks a high value that may be exact or a test limit, other limits are often not marked, values filed in µg/mL are converted to µM
[1] = test system: Aeromonas hydrophila BCRC 13018
Vibrio vulnificus 204 = test system: Vibrio vulnificus 204
[2] = test system: Enterococcus faecalis BCRC 10066
[3] = test system: Pseudomonas aeruginosa ATCC 19660
[4] = test system: Streptococcus agalactiae BCRC 10787
[5] = test system: Streptococcus agalactiae 819
Vibrio alginolyticus = test system: Vibrio alginolyticus
Saccharomyces cerevisiae = test system: Saccharomyces cerevisiae
[6] = test system: Candida albicans ATCC 10231
[7] = test system: Staphylococcus aureus Cowan 1
[8] = test system: Pseudomonas syringae pv. tabaci 1918NCPPB
[9] = test system: Schizosaccharomyces pombe
Escherichia coli D21 = test system: Escherichia coli D21
[10] = test system: Escherichia coli ATCC 25922
Staphylococcus capitis 1 = test system: Staphylococcus capitis 1
[11] = test system: Acinetobacter baumannii ATCC 19606
Bacillus megaterium Bm11 = test system: Bacillus megaterium Bm11
Acinetobacter junii RT-4 = test system: Acinetobacter junii RT-4
[12] = test system: Pseudomonas aeruginosa ATCC 15692
[13] = test system: Staphylococcus epidermidis ATCC 12228
[14] = test system: Staphylococcus aureus ATCC 25923
[15] = test system: Streptococcus pyogenes ATCC 21547
[16] = test system: Yersinia pseudotuberculosis YPIII
[17] = test system: Enterococcus faecalis ATCC 29212
[18] = test system: Pseudomonas aeruginosa ATCC 27853
Bacillus cereus = test system: Bacillus cereus
Bacillus anthracis = test system: Bacillus anthracis
Staphylococcus aureus = test system: Staphylococcus aureus
Escherichia coli = test system: Escherichia coli
[19] = test system: Staphylococcus aureus RN4220
Bacillus subtilis 168 = test system: Bacillus subtilis 168
Candida albicans CA14 = test system: Candida albicans CA14
[20] = test system: Salmonella typhimurium KCTC 1926
[21] = test system: Malassezia sympodialis ATCC 42132
[22] = test system: Saccharomyces cerevisiae BY4741
[23] = test system: Pseudomonas aeruginosa KCTC 1637
[24] = test system: Escherichia coli KCTC 1682
Escherichia coli K-12 = test system: Escherichia coli K-12
[25] = test system: Staphylococcus aureus KCTC 1621
[26] = test system: Bacillus subtilis KCTC 3068
[27] = test system: Staphylococcus epidermidis KCTC 1917
[28] = test system: Micrococcus luteus BCRC 11034
Streptococcus agalactiae = test system: Streptococcus agalactiae
[29] = test system: Vibrio harveyi BCRC 13812
Pseudomonas aeruginosa = test system: Pseudomonas aeruginosa
[30] = test system: Streptococcus pneumoniae BCRC 10794
[31] = test system: Staphylococcus aureus BCRC 10780
[32] = test system: Staphylococcus sp. BCRC 10451

CC[C@H](C)[C@H](NC(=O)[C@H](C)NC(=O)[C@H](CCCN=C(N)N)NC(=O)[C@H](Cc1cnc[nH]1)NC(=O)[C@@H](NC(=O)[C@H](C)NC(=O)[C@H](CCCN=C(N)N)NC(=O)[C@@H](NC(=O)CNC(=O)[C@H](Cc1cnc[nH]1)NC(=O)[C@H](CO)NC(=O)[C@@H](NC(=O)[C@H](Cc1c[nH]c2ccccc12)NC(=O)CNC(=O)[C@@H](NC(=O)[C@@H](NC(=O)[C@H](Cc1cnc[nH]1)NC(=O)[C@H](Cc1cnc[nH]1)NC(=O)[C@@H](NC(=O)[C@@H](N)Cc1ccccc1)[C@@H](C)CC)[C@@H](C)CC)[C@@H](C)CC)[C@@H](C)CC)C(C)C)[C@@H](C)CC)C(=O)N[C@@H](Cc1cnc[nH]1)C(=O)NCC(N)=O [FIHHIIGWISHGVRAIHRAIHG]
MIC [1]: 7.82 µM (≈ 19.8 µg/mL)
MIC (Vibrio vulnificus 204): 0.245 µM (≈ 0.62 µg/mL)
MIC [2]: 3.91 µM (≈ 9.89 µg/mL)
MIC [3]: 7.82 µM (≈ 19.8 µg/mL)
MIC [4]: 0.123 µM (≈ 0.31 µg/mL)
MIC [5]: 3.91 µM (≈ 9.89 µg/mL)
MIC (Vibrio alginolyticus): 0.49 µM (≈ 1.24 µg/mL)

CC[C@H](C)[C@H](NC(=O)[C@H](CCCN=C(N)N)NC(=O)CNC(=O)[C@H](CC(C)C)NC(=O)[C@H](Cc1ccccc1)NC(=O)[C@H](CCCCN)NC(=O)[C@H](CO)NC(=O)[C@H](Cc1ccccc1)NC(=O)[C@H](Cc1c[nH]c2ccccc12)NC(=O)[C@@H]1CCCN1C(=O)[C@@H](NC(=O)[C@@H](N)Cc1ccccc1)C(C)C)C(=O)N[C@@H](CC(C)C)C(N)=O [FVPWFSKFLGRIL]
MIC (Saccharomyces cerevisiae): 6 µM (≈ 9.65 µg/mL)
MIC [6]: 6 µM (≈ 9.65 µg/mL)
MIC [7]: 1.5 µM (≈ 2.41 µg/mL)
MIC [8]: 6 µM (≈ 9.65 µg/mL)
MIC [9]: 3 µM (≈ 4.83 µg/mL)
MIC (Escherichia coli D21): 12 µM (≈ 19.3 µg/mL)
MIC [10]: 24 µM (≈ 38.6 µg/mL)
MIC (Staphylococcus capitis 1): 1.5 µM (≈ 2.41 µg/mL)
MIC [11]: 6 µM (≈ 9.65 µg/mL)
MIC (Bacillus megaterium Bm11): 1.5 µM (≈ 2.41 µg/mL)
MIC (Acinetobacter junii RT-4): 6 µM (≈ 9.65 µg/mL)
MIC [12]: 24 µM (≈ 38.6 µg/mL)
MIC [13]: 1.5 µM (≈ 2.41 µg/mL)
MIC [14]: 3 µM (≈ 4.83 µg/mL)
MIC [15]: 6 µM (≈ 9.65 µg/mL)
MIC [16]: 3 µM (≈ 4.83 µg/mL)
MIC [17]: 6 µM (≈ 9.65 µg/mL)
MIC [18]: > 48 µM

CC(C)C[C@H](NC(=O)[C@H](Cc1ccccc1)NC(=O)[C@@H]1CCCN1C(=O)[C@H](Cc1ccccc1)NC(=O)[C@@H](NC(=O)[C@H](Cc1ccccc1)NC(=O)[C@H](CC(C)C)NC(=O)[C@@H](NC(=O)[C@H](CCCCN)NC(=O)[C@@H](NC(=O)[C@H](CCCCN)NC(=O)[C@H](CCCCN)NC(=O)[C@H](C)NC(=O)CNC(=O)[C@H](C)NC(=O)[C@@H](NC(=O)[C@H](CO)NC(=O)[C@@H](NC(=O)CN)C(C)C)C(C)C)C(C)C)C(C)C)C(C)C)C(=O)N[C@@H](Cc1ccccc1)C(=O)O [GVSVAGAKKVKVLFVFPFLF]
MIC (Bacillus cereus): ≥ 119 µM
MIC (Bacillus anthracis): ≥ 119 µM
MIC (Staphylococcus aureus): > 119 µM
MIC (Escherichia coli): > 119 µM

CC[C@H](C)[C@H](NC(=O)[C@H](CCCN=C(N)N)NC(=O)[C@H](CCCN=C(N)N)NC(=O)[C@H](CCCN=C(N)N)NC(=O)[C@H](CC(C)C)NC(=O)[C@@H](NC(=O)[C@@H](NC(=O)[C@H](CC(C)C)NC(=O)[C@@H](N)CC(C)C)[C@@H](C)CC)[C@@H](C)CC)C(=O)N[C@@H](CCCN=C(N)N)C(=O)N[C@@H](CCCCN)C(=O)N[C@@H](CCC(N)=O)C(=O)N[C@@H](C)C(=O)N[C@@H](Cc1cnc[nH]1)C(=O)N[C@@H](C)C(=O)N[C@@H](Cc1cnc[nH]1)C(=O)N[C@@H](CO)C(=O)N[C@@H](CCCCN)C(N)=O [LLIILRRRIRKQAHAHSK]
MIC [19]: 10 µM (≈ 22.1 µg/mL)
MIC (Bacillus subtilis 168): 10 µM (≈ 22.1 µg/mL)
MIC (Candida albicans CA14): 10 µM (≈ 22.1 µg/mL)
MIC [20]: 4 µM (≈ 8.83 µg/mL)
MIC [21]: 4.98 µM (≈ 11 µg/mL)
MIC [22]: 10 µM (≈ 22.1 µg/mL)
MIC [23]: 8 µM (≈ 17.7 µg/mL)
MIC [24]: 16 µM (≈ 35.3 µg/mL)
MIC (Escherichia coli K-12): 10 µM (≈ 22.1 µg/mL)
MIC [25]: 4 µM (≈ 8.83 µg/mL)
MIC [26]: 4 µM (≈ 8.83 µg/mL)
MIC [27]: 8 µM (≈ 17.7 µg/mL)

CC[C@H](C)[C@H](NC(=O)[C@H](CCSC)NC(=O)[C@H](CCCCN)NC(=O)CNC(=O)[C@H](C)NC(=O)[C@H](Cc1cnc[nH]1)NC(=O)[C@H](Cc1ccccc1)NC(=O)[C@H](CC(C)C)NC(=O)CNC(=O)[C@H](CCCCN)NC(=O)[C@@H](NC(=O)[C@@H](NC(=O)[C@H](Cc1cnc[nH]1)NC(=O)[C@H](Cc1ccccc1)NC(=O)[C@@H](NC(=O)[C@H](Cc1ccccc1)NC(=O)CNC(C)=O)[C@@H](C)CC)[C@@H](C)CC)[C@@H](C)CC)C(=O)N[C@@H](Cc1cnc[nH]1)C(=O)NCC(=O)N[C@@H](CC(C)C)C(=O)N[C@H](C(N)=O)C(C)C [GFIFHIIKGLFHAGKMIHGLV]
MIC (Vibrio vulnificus 204): 21.4 µM (≈ 50.9 µg/mL)
MIC [28]: 2.68 µM (≈ 6.36 µg/mL)
MIC (Streptococcus agalactiae): ≥ 42.8 µM
MIC [29]: 2.68 µM (≈ 6.36 µg/mL)
MIC (Staphylococcus aureus): 5.35 µM (≈ 12.7 µg/mL)
MIC (Pseudomonas aeruginosa): 5.35 µM (≈ 12.7 µg/mL)
MIC [30]: 21.4 µM (≈ 50.9 µg/mL)
MIC (Vibrio alginolyticus): 2.68 µM (≈ 6.36 µg/mL)
MIC [31]: 21.4 µM (≈ 50.9 µg/mL)
MIC [32]: 2.68 µM (≈ 6.36 µg/mL)

— DBAASP
